US20080108645A1, “Dihydrotetrabenazines And Pharmaceutical Compositions Containing Them” (CAMBRIDGE LABORATORIES, (IRELAND), LTD., priority 2004, published 2008)

Legend:
Sigma σ1 Receptor = target: T1, Sigma σ1 Receptor (Homo sapiens, UniProt Q99720); test: Sigma σ1 receptor radioligand binding; settings: 10 μM; 8 nM [3H] Haloperidol
T1 construct: Source: Human jurkat cells; endogenous in cells; host or cells: Jurkat cells
Procedure: (§1) (a) Adrenergic α2A Receptor: • Reference: S. Uhlen et al. J. Pharmacol. Exp. Ther., 271:1558-1565 (1994) • Source: Human recombinant insect Sf9 cells • Ligand: 1 nM [^3H] […] J. Pharmacol., 99:803-809, (1990) • Source: Wistar rat cerebral cortex • Ligand: 2 nM [3H]

Caco-2 monolayer = settings: for Recovery: human, Caco-2, 1 h, 50 μM, pH 7.4
Description: (§2) The assay relies on the ability of Caco-2 cells to differentiate into enterocytes when cultured on a microporous filter for a period of approximately 21 days. During the culture period, the Caco-2 cells undergo spontaneous morphological and biochemical changes, which produce a polarized monolayer with a well-defined brush border on the apical surface, as well as tight cellular junctions. Therefore, these cells may be used as an in vitro model for the analysis of drug permeability.
(§3) Absorption across the Caco-2 monolayer can be measured in two directions: apical-to-basolateral or basolateral-to-apical, by adding the compound to the apical or the basolateral chamber, respectively. At various time-points, samples are collected from the receiver-chamber for analysis for the rate of absorption as measured by the apparent permeability coefficient (Papp) across the monolayer.
(§4) The Papp value reflects a combination of the test article permeability through both transcellular (through cell membranes) and the paracellular (across the tight junctions between the cells) pathways. The relative contribution of these pathways depends upon the pKa, partition coefficient (log D), molecular radius, and charge of the test article at a given pH. Papp values can then be used to rank-order compounds for their permeability through Caco-2 monolayers.
(§5) Absorption was determined at pH 7.4 across cell monolayers in the apical-to-basolateral direction. Caco-2 cells used to estimate Papp values were grown for 26 days on Transwell inserts in 12-well plates. Monolayer integrity was verified before and after the absorption assay by the methods of transepithelial electrical resistance (Ohm-cm^2) and Lucifer Yellow.
(§6) On the day of the assay, the reference standards were diluted in Hank's balanced salt solution (HBSS), pH 7.4 to a final concentration of 50 μM. […] Dihydrotetrabenazine isomer samples were prepared at a concentration of 50 mM in DMSO. Each stock solution was further diluted in HBSS buffer (pH 7.4) to a final working concentration of 50 μM
(§7) The Caco-2 cell suspensions were prepared as follows. […] Once the cell density and viability were determined, Caco-2 cells were diluted in culture medium to a final working concentration of 2.0×10^5 cells/ml. The Caco-2 culture medium contained Dulbecco's Modified Eagle Medium, 10% fetal bovine serum, 100 μM non-essential amino acids, 100 U/ml penicillin and 100 μg/ml streptomycin.
(§8) Costar polycarbonate membranes (0.4 μm pore size) were pre-equilibrated with Caco-2 culture medium for 1 hour in a 37° C. water-jacketed incubator with 5% CO2. The content of the apical chamber was removed and replaced with 500 μl of Caco-2 cell suspension (200 000 cells/ml). Cells were further maintained in culture for 26 days in a 37° C. water-jacketed incubator with 5% CO2.
(§9) Prior to the assay, all monolayers were washed twice with HBSS and their transepithelial electrical resistance (TEER) was measured with a Millicell-ERS meter. TEER values obtained in the absence of cells were subtracted as background signal. Only monolayer with TEER values over 150 Ohm-cm^2 were used for the absorption assay experiment.
(§10) All absorption experiments were conducted in triplicate at pH 7.4. The rate of absorption of each reference standard and dihydrotetrabenazine test article was assessed in the apical-to-basolateral direction. Aliquots (100 μl) of each working solution (reference standards and test articles at 50 μM) were set aside at the beginning of the assay for the determination of the initial concentration (Co).
(§11) Absorption experiments were initiated by replacing the content of the donor chamber with 500 μl of Hanks Balanced Salt Solution containing test articles or reference compounds. Cells were returned to the CO2 incubator for the absorption assay. Samples of 100 μl were collected from the receiver and donor chambers after 1 hour and were used to determine the percentage of recovery.

[1] = test system: Imidazoline I2 (Central) Receptor; test: Imidazoline I2 (central) receptor radioligand binding; design: species or system Wistar rat; settings: 10 μM; 2 nM [3H] Idazoxan
Procedure: as §1

Adrenergic α2B Receptor = target: T2, Adrenergic α2B Receptor (Homo sapiens, UniProt P18089); test: Adrenergic α2B receptor radioligand binding; settings: 10 μM; 2.5 nM [3H] Rauwolscine
T2 construct: expressed in transfected cells; host or cells: CHO-K1 cells
T2 sequence (P18089 1-450): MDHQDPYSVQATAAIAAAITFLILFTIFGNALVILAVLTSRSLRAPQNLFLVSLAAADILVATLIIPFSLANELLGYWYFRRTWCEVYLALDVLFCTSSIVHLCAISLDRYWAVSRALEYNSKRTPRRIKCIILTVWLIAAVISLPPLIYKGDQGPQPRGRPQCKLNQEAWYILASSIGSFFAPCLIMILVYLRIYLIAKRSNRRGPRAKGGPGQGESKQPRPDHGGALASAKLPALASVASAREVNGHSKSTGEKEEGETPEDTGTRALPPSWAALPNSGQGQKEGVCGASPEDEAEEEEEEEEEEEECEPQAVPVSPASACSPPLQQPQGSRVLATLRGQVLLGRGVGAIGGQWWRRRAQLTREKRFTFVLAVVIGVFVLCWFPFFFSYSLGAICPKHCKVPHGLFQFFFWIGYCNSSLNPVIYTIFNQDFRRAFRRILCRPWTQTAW
Procedure: as §1

[2] = target: T3, Serotonin Transporter (SERT) (Homo sapiens, UniProt P31645); test: Serotonin transporter (SERT) radioligand binding; settings: 10 μM; 0.15 nM [125I] RTI-55
T3 construct: expressed in transfected cells; host or cells: HEK-293 cells
Procedure: as §1

Dopamine D1 Receptor = target: T4, Dopamine D1 Receptor (Homo sapiens, UniProt P21728); test: Dopamine D1 receptor radioligand binding; settings: 10 μM; 1.4 nM [3H] SCH-23390
T4 construct: expressed in transfected cells; host or cells: CHO cells
Procedure: as §1

Dopamine D3 Receptor = target: T5, Dopamine D3 Receptor (Homo sapiens, UniProt P35462); test: Dopamine D3 receptor radioligand binding; settings: 10 μM; 0.7 nM [3H] Spiperone
T5 construct: expressed in transfected cells; host or cells: CHO cells
Procedure: as §1

Sigma σ2 Receptor = target: T6, Sigma σ2 Receptor (Rattus norvegicus, UniProt Q5U3Y7); test: Sigma σ2 receptor radioligand binding; design: species or system Wistar rat; settings: 3 nM [3H] Ifenprodil
T6 construct: Source: Wistar rat brain; from tissue; host or cells: Wistar rat brain
T6 sequence (Q5U3Y7 1-176): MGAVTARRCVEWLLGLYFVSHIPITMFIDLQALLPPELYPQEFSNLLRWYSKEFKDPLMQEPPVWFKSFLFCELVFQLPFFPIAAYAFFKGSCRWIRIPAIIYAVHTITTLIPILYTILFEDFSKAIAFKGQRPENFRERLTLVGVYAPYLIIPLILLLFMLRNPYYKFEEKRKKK
Procedure: as §1

Adrenergic α2A Receptor = target: T7, Adrenergic α2A Receptor (Homo sapiens, UniProt P08913); test: Adrenergic α2A receptor radioligand binding; settings: 10 μM; 1 nM [3H] MK-912
T7 construct: expressed in transfected cells; host or cells: insect Sf9 cells
T7 sequence (P08913 1-465): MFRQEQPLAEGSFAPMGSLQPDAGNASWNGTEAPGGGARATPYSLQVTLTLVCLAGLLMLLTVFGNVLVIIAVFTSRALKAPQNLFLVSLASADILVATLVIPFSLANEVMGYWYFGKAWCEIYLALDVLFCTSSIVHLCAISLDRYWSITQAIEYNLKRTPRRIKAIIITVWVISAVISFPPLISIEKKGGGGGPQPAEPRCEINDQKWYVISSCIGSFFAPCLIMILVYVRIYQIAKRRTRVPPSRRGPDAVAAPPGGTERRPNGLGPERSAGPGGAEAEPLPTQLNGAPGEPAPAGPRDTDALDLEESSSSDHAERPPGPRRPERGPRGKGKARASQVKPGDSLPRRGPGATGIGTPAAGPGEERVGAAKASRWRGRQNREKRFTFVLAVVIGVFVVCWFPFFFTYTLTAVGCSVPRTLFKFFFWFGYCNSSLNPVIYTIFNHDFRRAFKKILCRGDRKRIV
Procedure: as §1

Dopamine D2L Receptor = target: T8, Dopamine D2L Receptor (Homo sapiens, UniProt P14416); test: Dopamine D2L receptor radioligand binding; settings: 10 μM; 0.16 nM [3H] Spiperone
T8 construct: expressed in transfected cells; host or cells: CHO cells
Procedure: as §1

[3] = target: T9, Dopamine Transporter (DAT) (Homo sapiens, UniProt Q01959); test: Dopamine transporter (DAT) radioligand binding; settings: 10 μM, 0.15 nM [125I] RTI-55
T9 construct: expressed in transfected cells; host or cells: CHO cells
Procedure: as §1

Male Sprague-Dawley rats = test: Spontaneous locomotor activity in rats (sedative properties); type: in vivo, rat; settings: 1 mg/kg i.p.
Procedure: A study was carried out in rats to determine whether the dihydrotetrabenazine isomers of the invention have sedative properties. The effects of the isomers on spontaneous locomotor activity in rats were compared with the effects produced by tetrabenazine and haloperidol using the methods set out below.
Male Sprague-Dawley rats, (Charles River Laboratories, Saint-Germain/L'Arbresle, France), weighing 200-250 g at the beginning of the study, were used for the studies. The rats were housed, 2 or 3 per cage, in Makrolon type III cages, in a room set up with the following environmental conditions: temperature: 20±2° C., humidity: minimum 45%, air changes: >12 per hour, light/dark cycle of 12 h/12 h [on at 7:00 a.m.]. The rats were allowed to acclimatize to their conditions for at least five days before commencement of the study. The rats received food (Dietex, Vigny, France, ref. 811002) and water (tap water in water bottle) ad libitum.
Solutions of each test compound in corn oil were freshly prepared on the day of the experiment. Haloperidol was prepared in hydroxyethylcellulose, 0.5% in deionized water. Either the vehicle or the test compounds were administered as a single dose (0.3, 1, 3 and 10 mg/kg, 2 mL/kg i.p.). The reference compound haloperidol (1 mg/kg) was administered i.p. (2 mL/kg).
The animals were placed in plexiglass cages under a video camera in a room with low light intensity (maximum 50 lux). At forty five minutes and 3 hours after administration, locomotor activity was determined during 20 minute periods using a video image analyzer (Videotrack, View Point, France). Locomotor activity was recorded in the reference group (haloperidol) at 1 hour after administration. The number and duration of ambulatory movements and duration of inactivity was measured. At the end of the locomotor activity measurement (45 minutes and 3 hours), palpebral closure and arousal were be scored as follows in the plexiglass cage:
The number of occurrences and duration (in seconds) of ambulatory (large) movements and the duration of periods of inactivity (seconds) was determined during two 20 minute periods (45 minutes and 3 hours after administration) using a video image analyzer (Videotrack, ViewPoint, Lyon, France). Image tracking was performed using a video camera placed above the plexiglass cage, recording overall locomotor activity. Images recorded with the video camera were digitalized and displacement of the centre of gravity of the digital image spots was tracked and analyzed using the following method: the speed of displacement of the centre of gravity of the spot was measured and two threshold values were set to define the type of movement: threshold 1 (high speed) and threshold 2 (low speed). When the animal moved and the speed of displacement of the centre of gravity of the spot was above threshold 1, the movement was considered as an ambulatory movement.
The results were expressed as the means±SEMs of the 12 individual values. Statistical analyses were carried out using ANOVA (one way) and Dunnett's t-test and with the non parametric test of Kruskal-Wallis followed by a Mann & Whitney U-test for the sedation cotation. A p value of p<0.05 was taken as indicating significance.

in vitro = settings: human, Caco-2, pH 7.4
Description: as §2, §3, §4, §5, §6, §7, §8, §9, §10, §11

[4] = 45 minutes after administration

T1 sequence (Q99720 whole entry): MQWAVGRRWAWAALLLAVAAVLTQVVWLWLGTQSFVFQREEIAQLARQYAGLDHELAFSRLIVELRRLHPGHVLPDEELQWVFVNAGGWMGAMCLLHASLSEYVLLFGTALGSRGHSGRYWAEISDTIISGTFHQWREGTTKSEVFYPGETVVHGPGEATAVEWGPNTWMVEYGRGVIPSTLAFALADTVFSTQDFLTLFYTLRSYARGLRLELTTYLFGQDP
T5 sequence (P35462 whole entry): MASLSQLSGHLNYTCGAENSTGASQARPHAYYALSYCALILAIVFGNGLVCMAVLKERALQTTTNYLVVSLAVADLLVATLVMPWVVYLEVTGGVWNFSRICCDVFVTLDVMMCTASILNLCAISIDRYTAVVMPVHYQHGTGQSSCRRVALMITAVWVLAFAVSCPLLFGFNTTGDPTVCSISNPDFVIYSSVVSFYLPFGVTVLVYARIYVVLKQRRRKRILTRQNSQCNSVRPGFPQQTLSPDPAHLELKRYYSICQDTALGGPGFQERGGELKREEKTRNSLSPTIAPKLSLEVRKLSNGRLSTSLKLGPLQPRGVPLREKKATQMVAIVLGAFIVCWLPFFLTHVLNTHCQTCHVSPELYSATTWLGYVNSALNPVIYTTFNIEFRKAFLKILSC
T4 sequence (P21728 whole entry): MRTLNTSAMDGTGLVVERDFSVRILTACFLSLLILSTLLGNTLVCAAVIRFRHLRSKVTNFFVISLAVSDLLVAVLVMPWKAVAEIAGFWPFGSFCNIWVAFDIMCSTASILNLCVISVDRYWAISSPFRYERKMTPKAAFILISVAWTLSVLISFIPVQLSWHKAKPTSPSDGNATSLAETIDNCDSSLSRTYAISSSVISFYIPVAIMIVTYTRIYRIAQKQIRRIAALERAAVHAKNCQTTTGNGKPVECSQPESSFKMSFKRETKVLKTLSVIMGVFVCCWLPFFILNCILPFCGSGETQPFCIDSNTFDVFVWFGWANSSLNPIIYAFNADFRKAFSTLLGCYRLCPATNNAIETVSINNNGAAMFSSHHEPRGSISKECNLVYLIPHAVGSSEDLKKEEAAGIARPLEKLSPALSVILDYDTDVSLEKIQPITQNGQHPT
T8 sequence (P14416 whole entry): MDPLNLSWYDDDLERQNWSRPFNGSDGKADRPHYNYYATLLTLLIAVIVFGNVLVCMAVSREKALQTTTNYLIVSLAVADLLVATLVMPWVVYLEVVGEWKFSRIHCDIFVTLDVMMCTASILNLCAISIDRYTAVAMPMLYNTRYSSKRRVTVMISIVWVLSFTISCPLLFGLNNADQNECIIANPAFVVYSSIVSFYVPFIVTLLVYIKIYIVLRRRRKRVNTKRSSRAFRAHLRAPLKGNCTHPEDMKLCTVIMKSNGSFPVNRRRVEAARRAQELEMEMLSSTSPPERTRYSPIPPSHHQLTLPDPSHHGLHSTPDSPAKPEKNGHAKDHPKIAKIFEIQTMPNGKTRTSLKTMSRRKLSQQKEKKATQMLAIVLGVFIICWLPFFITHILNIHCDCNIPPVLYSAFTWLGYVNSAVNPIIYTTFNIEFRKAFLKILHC
T9 sequence (Q01959 whole entry): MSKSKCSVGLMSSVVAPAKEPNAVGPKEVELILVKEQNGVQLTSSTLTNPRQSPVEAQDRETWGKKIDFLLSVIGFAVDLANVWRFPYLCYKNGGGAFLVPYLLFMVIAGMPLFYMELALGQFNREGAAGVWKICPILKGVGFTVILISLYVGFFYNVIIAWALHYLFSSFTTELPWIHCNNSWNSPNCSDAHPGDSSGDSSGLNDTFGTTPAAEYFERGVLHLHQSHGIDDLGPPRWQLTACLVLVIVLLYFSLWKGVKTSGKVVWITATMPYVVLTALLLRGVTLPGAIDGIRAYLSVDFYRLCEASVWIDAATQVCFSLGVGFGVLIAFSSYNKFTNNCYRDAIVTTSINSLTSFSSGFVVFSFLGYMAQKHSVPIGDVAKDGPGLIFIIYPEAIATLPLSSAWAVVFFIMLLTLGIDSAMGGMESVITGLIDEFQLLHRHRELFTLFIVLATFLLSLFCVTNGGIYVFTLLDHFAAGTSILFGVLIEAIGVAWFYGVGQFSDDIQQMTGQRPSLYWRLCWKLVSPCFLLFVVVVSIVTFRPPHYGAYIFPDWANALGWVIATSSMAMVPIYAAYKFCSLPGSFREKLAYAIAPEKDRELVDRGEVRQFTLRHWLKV
T3 sequence (P31645 whole entry): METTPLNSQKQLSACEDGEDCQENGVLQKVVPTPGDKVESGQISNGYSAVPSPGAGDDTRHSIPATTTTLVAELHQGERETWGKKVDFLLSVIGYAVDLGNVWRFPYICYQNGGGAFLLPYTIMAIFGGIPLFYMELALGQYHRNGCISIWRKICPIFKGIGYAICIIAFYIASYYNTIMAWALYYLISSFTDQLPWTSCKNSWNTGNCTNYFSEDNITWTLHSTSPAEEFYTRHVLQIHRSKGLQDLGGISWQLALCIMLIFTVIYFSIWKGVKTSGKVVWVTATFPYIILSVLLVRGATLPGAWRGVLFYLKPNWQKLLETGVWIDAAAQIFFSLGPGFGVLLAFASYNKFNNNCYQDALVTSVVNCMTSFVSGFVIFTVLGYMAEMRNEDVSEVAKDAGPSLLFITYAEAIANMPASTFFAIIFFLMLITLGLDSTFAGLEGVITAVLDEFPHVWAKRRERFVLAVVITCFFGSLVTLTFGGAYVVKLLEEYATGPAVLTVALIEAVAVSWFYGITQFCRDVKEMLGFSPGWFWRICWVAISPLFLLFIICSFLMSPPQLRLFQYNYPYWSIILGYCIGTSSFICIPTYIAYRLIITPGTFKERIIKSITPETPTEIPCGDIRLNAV

Structure (SMILES) | Percentage Inhibition of Specific Binding, σ1 Receptor (Sigma σ1 Receptor) [%] | permeability in the Caco-2 model (in words) (Caco-2 monolayer) | Recovery (Caco-2 monolayer) [%] | Percentage Inhibition of Specific Binding, I2 Receptor [1] [%] | Percentage Inhibition of Specific Binding, α2B Receptor (Adrenergic α2B Receptor) [%] | Percentage Inhibition of Specific Binding, SERT [2] [%] | Percentage Inhibition of Specific Binding, D1 Receptor (Dopamine D1 Receptor) [%] | Percentage Inhibition of Specific Binding, D3 Receptor (Dopamine D3 Receptor) [%] | Percentage Inhibition of Specific Binding, α2A Receptor (Adrenergic α2A Receptor) [%] | Percentage Inhibition of Specific Binding, D2L Receptor (Dopamine D2L Receptor) [%] | Papp A→B at 1 h, 50 μM (in vitro) [×10⁻⁶ cm/s] | recovery at 1 h, 50 μM (in vitro) [%] | also measured
COc1cc2c(cc1OC)[C@H]1C[C@H](O)[C@@H](CC(C)C)CN1CC2 (single isomer, unassigned) [Isomer A, 3,11b-cis-dihydrotetrabenazine] | 48 | high permeability | 106.8 ± 7.9 | 74 | 44 | 19 | 78 | 69 | 86 | 87 |  |  | inhibition at 10 µM (Sigma σ2 Receptor; read-out: Percentage Inhibition of Specific Binding, σ2 Receptor): 64%; inhibition at 10 µM ([3]; read-out: Percentage Inhibition of Specific Binding, DAT): 3%
COc1cc2c(cc1OC)[C@H]1C[C@@H](O)[C@@H](CC(C)C)CN1CC2 (single isomer, unassigned) [Isomer D, 3,11b-cis-dihydrotetrabenazine] | 82 | high permeability | 106.5 ± 23.8 | 55 | 50 | 8 | 38 | 63 | 87 | 58 |  |  | Percentage Inhibition of Specific Binding, σ2 Receptor (Sigma σ2 Receptor; 10 μM): 69%; Percentage Inhibition of Specific Binding, DAT [3]: 2%
O=C(CCCN1CCC(O)(c2ccc(Cl)cc2)CC1)c1ccc(F)cc1 [Haloperidol, reference compound] |  |  |  |  |  |  |  |  |  |  |  |  | Inactivity Duration (Male Sprague-Dawley rats; [4]): 637.2 ± 60.1 s; Large movements Duration (Male Sprague-Dawley rats; [4]): 14.8 ± 8.5 s; Large movements Occurrence (Male Sprague-Dawley rats; [4]): 58 ± 33; Inactivity Duration (Male Sprague-Dawley rats; 3 hours after administration): 723.6 ± 50.2 s; Large movements Duration (Male Sprague-Dawley rats; 3 hours after administration): 2.2 ± 2.0 s; Large movements Occurrence (Male Sprague-Dawley rats; 3 hours after administration): 9 ± 8
OC[C@@H](O)[C@@H](O)[C@H](O)[C@H](O)CO [Mannitol] |  |  |  |  |  |  |  |  |  |  | 1.18 ± 0.14 | 97.1 ± 0.3 | 
O=C(O)c1ccccc1O [Salicylic Acid] |  |  |  |  |  |  |  |  |  |  | 8.91 ± 8.14 | 91.5 ± 11.4 | 
C[C@]12CC[C@H]3[C@@H](CCC4=CC(=O)CC[C@@]43C)[C@@H]1CC[C@@H]2O [Testosterone] |  |  |  |  |  |  |  |  |  |  |  | 105 ± 10.6 | 
